Here are results for 24 compounds from US20180147196A1, “PYRIDIN-3-YL ACETIC ACID DERIVATIVES AS INHIBITORS OF HUMAN IMMUNODEFICIENCY VIRUS REPLICATION” (priority 2015, published 2018).

Where two headings read alike, the source gives them in different places. Some results are limits rather than exact numbers.

For the assay, the system named is NL-RLuc virus. The assay can be described thus: Inhibition of HIV replication (NL-RLuc virus in MT-2 cells, luciferase readout). Format: cell-based. Particulars: Human immunodeficiency virus 1, MT2, 120 h. The text has this:
Inhibition of HIV replication: A recombinant NL-RLuc proviral clone was constructed in which a section of the nef gene from NL4-3 was replaced with the Renilla Luciferase gene. This virus is fully infectious and can undergo multiple cycles of replication in cell culture. In addition, the luciferous reporter provides a simple and easy method for quantitating the extent of virus growth and consequently, the antiviral activity of test compounds. The plasmid pNLRLuc contains the proviral NL-Rluc DNA cloned into pUC18 at the Pvull site. The NL-RLuc virus was prepared by transfection of 293T cells with the plasmid pNLRLuc. Transfections were performed using the LipofectAMINE PLUS kit from Invitrogen (Carlsbad, Calif.) according to the manufacturer and the virus generated was titered in MT-2 cells. For susceptibility analyses, the titrated virus was used to infect MT-2 cells in the presence of compound, and after 5 days of incubation, cells were processed and quantitated for virus growth by the amount of expressed luciferase. Assay media was RPMI 1640 supplemented with 10% heat inactivated fetal bovine serum (FBS), 100 units/ml penicillin G/100 units/ml streptomycin, 10 mM HEPES buffer pH 7.55 and 2 mM L-glutamine. The results from at least 2 experiments were used to calculate the EC50 values. Luciferase was quantitated using the Dual Luciferase kit from Promega (Madison, Wis.). Susceptibility of viruses to compounds was determined by incubation in the presence of serial dilutions of the compound. The 50% effective concentration (EC50) was calculated by using the exponential form of the median effect equation where (Fa)=1/[1+(ED50/drug conc.)^m] (Johnson V A, Byington R T. Infectivity Assay. In Techniques in HIV Research. ed. Aldovini A, Walker BD. 71-76. New York: Stockton Press.1990). Activity equal to A refers to a compound having an EC50<100 nM, while B and C denote compounds having an EC50 between 100 nM and 1 uM (B) or >1 uM (C).

In the case of `Cc1nc(C)c([C@H](OC(C)(C)C)C(=O)O)c(N2CCC(C)(C)CC2)c1C#CCOCc1ccccc1` [Example 1, (S)-2-(5-(3-(Benzyloxy)prop-1-yn-1-yl)-4-(4,4-dimethylpiperidin-1-yl)-2,6-dimethylpyridin-3-yl)-2-(tert-butoxy)acetic acid], the EC50 was 0.1 to 1 µM (read-out: Activity) and 0.282 µM (read-out: EC50 μM).
As to `Cc1nc(C)c([C@H](OC(C)(C)C)C(=O)O)c(N2CCC(C)(C)CC2)c1C#CC1(O)CCN(Cc2ccccc2)CC1` [Example 2, (S)-2-(5-((1-Benzyl-4-hydroxypiperidin-4-yl)ethynyl)-4-(4,4-dimethylpiperidin-1-yl)-2,6-dimethylpyridin-3-yl)-2-(tert-butoxy)acetic acid], the EC50 is below 0.1 µM (read-out: Activity) and 0.064 µM (read-out: EC50 μM).
In the case of `Cc1nc(C)c([C@H](OC(C)(C)C)C(=O)O)c(N2CCC(C)(C)CC2)c1/C=C/c1ccc(F)cc1` [Example 3, (S,E)-2-(tert-Butoxy)-2-(4-(4,4-dimethylpiperidin-1-yl)-5-(4-fluorostyryl)-2,6-dimethylpyridin-3-yl)acetic acid], where the note is “read-out: Activity”, the EC50 is below 0.1 µM.
For `Cc1nc(C)c([C@H](OC(C)(C)C)C(=O)O)c(N2CCC(C)(C)CC2)c1CCc1ccc(F)cc1` [Example 4, (S)-2-(tert-Butoxy)-2-(4-(4,4-dimethylpiperidin-1-yl)-5-(4-fluorophenethyl)-2,6-dimethylpyridin-3-yl)acetic acid], under “read-out: Activity”, the EC50 is below 0.1 µM.
As for `Cc1nc(C)c([C@H](OC(C)(C)C)C(=O)O)c(N2CCC(C)(C)CC2)c1/C=C/c1ccc(-c2ccccc2)cc1` [Example 5, (S,E)-2-(5-(2-([1,1′-Biphenyl]-4-yl)vinyl)-4-(4,4-dimethylpiperidin-1-yl)-2,6-dimethylpyridin-3-yl)-2-(tert-butoxy)acetic acid], the EC50 reads like this: (read-out: Activity) below 0.1 µM; (read-out: EC50 μM) 0.035 µM.
As to `Cc1nc(C)c([C@H](OC(C)(C)C)C(=O)O)c(N2CCC(C)(C)CC2)c1CCc1ccc(-c2ccccc2)cc1` [Example 6, (S)-2-(5-(2-([1,1′-Biphenyl]-4-yl)ethyl)-4-(4,4-dimethylpiperidin-1-yl)-2,6-dimethylpyridin-3-yl)-2-(tert-butoxy)acetic acid], the EC50 (read-out: Activity) is below 0.1 µM.
With `Cc1nc(C)c([C@H](OC(C)(C)C)C(=O)O)c(N2CCC(C)(C)CC2)c1/C=C/c1ccc(C(F)(F)F)cc1` [Example 7, (S,E)-2-(tert-Butoxy)-2-(4-(4,4-dimethylpiperidin-1-yl)-2,6-dimethyl-5-(4-(trifluoromethyl)styryl)pyridin-3-yl)acetic acid], under “read-out: Activity”, the EC50 is below 0.1 µM.
Consider `Cc1nc(C)c([C@H](OC(C)(C)C)C(=O)O)c(N2CCC(C)(C)CC2)c1CCc1ccc(C(F)(F)F)cc1` [Example 8, (S)-2-(tert-Butoxy)-2-(4-(4,4-dimethylpiperidin-1-yl)-2,6-dimethyl-5-(4-(trifluoromethyl)phenethyl)pyridin-3-yl)acetic acid], for which, for the setting “read-out: Activity”, the EC50 lay in the range of 0.1 to 1 µM.
With `Cc1nc(C)c([C@H](OC(C)(C)C)C(=O)O)c(N2CCC(C)(C)CC2)c1/C=C/Cc1ccccc1` [Example 9, (S,E)-2-(tert-Butoxy)-2-(4-(4,4-dimethylpiperidin-1-yl)-2,6-dimethyl-5-(3-phenylprop-1-en-1-yl)pyridin-3-yl)acetic acid], the EC50 is, setting by setting: (read-out: Activity) 0.1 to 1 µM; (read-out: EC50 μM) 0.281 µM.
As for `Cc1nc(C)c([C@H](OC(C)(C)C)C(=O)O)c(N2CCC(C)(C)CC2)c1CCCc1ccccc1` [Example 10, (S)-2-(tert-Butoxy)-2-(4-(4,4-dimethylpiperidin-1-yl)-2,6-dimethyl-5-(3-phenylpropyl)pyridin-3-yl)acetic acid], the EC50 (read-out: Activity) is 0.1 to 1 µM.
Turning to `Cc1nc(C)c([C@H](OC(C)(C)C)C(=O)O)c(N2CCC(C)(C)CC2)c1/C=C/c1ccccc1` [Example 11, (S,E)-2-(tert-Butoxy)-2-(4-(4,4-dimethylpiperidin-1-yl)-2,6-dimethyl-5-styrylpyridin-3-yl)acetic acid], the EC50 (read-out: Activity) was below 0.1 µM and the EC50 (read-out: EC50 μM) is 0.027 µM.
In the case of `Cc1nc(C)c([C@H](OC(C)(C)C)C(=O)O)c(N2CCC(C)(C)CC2)c1CCc1ccccc1` [Example 12, (S)-2-(tert-Butoxy)-2-(4-(4,4-dimethylpiperidin-1-yl)-2,6-dimethyl-5-phenethylpyridin-3-yl)acetic acid], the EC50 (read-out: Activity) was 0.1 to 1 µM.
Take `Cc1nc(C)c([C@H](OC(C)(C)C)C(=O)O)c(N2CCC(C)(C)CC2)c1Br` [Example 13, (S)-2-(5-Bromo-4-(4,4-dimethylpiperidin-1-yl)-2,6-dimethylpyridin-3-yl)-2-(tert-butoxy)acetic acid]: the EC50 (read-out: Activity) was in the range of 0.1 to 1 µM.
With `Cc1nc(C)c([C@H](OC(C)(C)C)C(=O)O)c(N2CCC(C)(C)CC2)c1C1=CCCCC1` [Example 14, (S)-2-(tert-Butoxy)-2-(5-(cyclohex-1-en-1-yl)-4-(4,4-dimethylpiperidin-1-yl)-2,6-dimethylpyridin-3-yl)acetic acid], the EC50 by setting is: (read-out: Activity) 0.1 to 1 µM; (read-out: EC50 μM) 0.136 µM.
`Cc1nc(C)c([C@H](OC(C)(C)C)C(=O)O)c(N2CCC(C)(C)CC2)c1C1=CCC(C(C)(C)C)CC1` (stereo partly drawn) [Example 15, (2S)-2-(tert-Butoxy)-2-(5-(4-(tert-butyl)cyclohex-1-en-1-yl)-4-(4,4-dimethylpiperidin-1-yl)-2,6-dimethylpyridin-3-yl)acetic acid]: the EC50 (read-out: Activity) lay in the range of 0.1 to 1 µM.
As for `Cc1nc(C)c([C@H](OC(C)(C)C)C(=O)O)c(N2CCC(C)(C)CC2)c1C1=CCN(C(=O)OC(C)(C)C)CC1` [Example 16, (S)-2-(tert-Butoxy)-2-(1′-(tert-butoxycarbonyl)-4-(4,4-dimethylpiperidin-1-yl)-2,6-dimethyl-1′,2′,3′,6′-tetrahydro-[3,4′-bipyridin]-5-yl)acetic acid], for the setting “read-out: Activity”, the EC50 is below 0.1 µM.
As to `Cc1nc(C)c([C@H](OC(C)(C)C)C(=O)O)c(N2CCC(C)(C)CC2)c1/C=C/CNC(=O)OCc1ccccc1` [Example 17, (S,E)-2-(5-(3-(((Benzyloxy)carbonyl)amino)prop-1-en-1-yl)-4-(4,4-dimethylpiperidin-1-yl)-2,6-dimethylpyridin-3-yl)-2-(tert-butoxy)acetic acid], under “read-out: Activity”, the EC50 was below 0.1 µM.
On to `COC(=O)NC/C=C/c1c(C)nc(C)c([C@H](OC(C)(C)C)C(=O)O)c1N1CCC(C)(C)CC1` [Example 18, (S,E)-2-(tert-Butoxy)-2-(4-(4,4-dimethylpiperidin-1-yl)-5-(3-((methoxycarbonyl)amino)prop-1-en-1-yl)-2,6-dimethylpyridin-3-yl)acetic acid], for which the EC50 (read-out: Activity) was in the range of 0.1 to 1 µM.
Still for that read-out and setting: the result for `Cc1nc(C)c([C@H](OC(C)(C)C)C(=O)O)c(N2CCC(C)(C)CC2)c1C1=CCN(C(=O)OCc2ccccc2)CC1` [Example 19, (S)-2-(1′-((Benzyloxy)carbonyl)-4-(4,4-dimethylpiperidin-1-yl)-2,6-dimethyl-1′,2′,3′,6′-tetrahydro-[3,4′-bipyridin]-5-yl)-2-(tert-butoxy)acetic acid] reads below 0.1 µM; that for `COC(=O)N1CC=C(c2c(C)nc(C)c([C@H](OC(C)(C)C)C(=O)O)c2N2CCC(C)(C)CC2)CC1` [Example 20, (S)-2-(tert-Butoxy)-2-(4-(4,4-dimethylpiperidin-1-yl)-1′-(methoxycarbonyl)-2,6-dimethyl-1′,2′,3′,6′-tetrahydro-[3,4′-bipyridin]-5-yl)acetic acid], 0.1 to 1 µM.
With `Cc1nc(C)c([C@H](OC(C)(C)C)C(=O)O)c(N2CCC(C)(C)CC2)c1C1=CCNCC1` [Example 21, (S)-2-(tert-Butoxy)-2-(4-(4,4-dimethylpiperidin-1-yl)-2,6-dimethyl-1′,2′,3′,6′-tetrahydro-[3,4′-bipyridin]-5-yl)acetic acid], the EC50 (read-out: Activity) is above 1 µM and the EC50 (read-out: EC50 μM) was determined as 2.21 µM.
Turning to `Cc1nc(C)c([C@H](OC(C)(C)C)C(=O)O)c(N2CCC(C)(C)CC2)c1C1=CCN(CCc2ccc(F)cc2)CC1` [Example 22, (S)-2-(tert-Butoxy)-2-(4-(4,4-dimethylpiperidin-1-yl)-1′-(4-fluorophenethyl)-2,6-dimethyl-1′,2′,3′,6′-tetrahydro-[3,4′-bipyridin]-5-yl)acetic acid], the EC50 (read-out: Activity) was in the range of 0.1 to 1 µM.
As for `Cc1nc(C)c([C@H](OC(C)(C)C)C(=O)O)c(N2CCC(C)(C)CC2)c1C1=CCN(CCCc2ccc(F)cc2)CC1` [Example 23, (S)-2-(tert-Butoxy)-2-(4-(4,4-dimethylpiperidin-1-yl)-1′-(3-(4-fluorophenyl)propyl)-2,6-dimethyl-1′,2′,3′,6′-tetrahydro-[3,4′-bipyridin]-5-yl)acetic acid], under “read-out: Activity”, the EC50 is below 0.1 µM.
Turning to `Cc1nc(C)c([C@H](OC(C)(C)C)C(=O)O)c(N2CCC(C)(C)CC2)c1C#N` [Example 24, (S)-2-(tert-Butoxy)-2-(5-cyano-4-(4,4-dimethylpiperidin-1-yl)-2,6-dimethylpyridin-3-yl)acetic acid], the EC50 (read-out: Activity) lay in the range of 0.1 to 1 µM.
